Assay results published in PMC6110851, “An Optimized MicroPET Imaging Method for the Distribution and Synergies of Natural Products” (Frontiers in Pharmacology, 2018).
Where two headings read alike, the source gives them in different places.

Legend:
[1] = Safety evaluation during the MicroPET experiment (vital signs, electrocardiograms); type: in vivo, mice
[2] = MicroPET distribution of [^18F]-GA after PG polysaccharides intervention; type: in vivo, mice; conditions: for tissue uptake at 1 h: po, read-out: %ID/g of [^18F]-GA in the lungs, OA
Protocol: The mice were grouped by weight and housed in cages of the climate control room (25°C), with a photoperiod 12:12-h. During feeding, mice were free to access food and water. Mice were fasted for 24 h before the experiment. The mice were anesthetized with 4% isoflurane while preparing for scanning ([Constantinescu et al., 2013b]; [Cui et al., 2017]). Eighteen healthy male Kunming mice, weighing 20 ± 2 g, were divided into three groups, which were control group, once-administered (OA) group and long-term administration (LA) group. In the OA group, 1 h before the administration of [^18F]-GA, the mice were orally treated with PG polysaccharides. In the LA group, the mice were orally given the PG polysaccharides for 7 days, but not before the administration of [^18F]-GA.
Rice received a tail vein injection (8.67 ± 2.14 MBq/μg) of [^18F]-GA and placed in the scanner bed and mouse-imaging room immediately ([Constantinescu et al., 2013b]; [O’Doherty et al., 2017]). Firstly, 2 h PET scanning was performed using an Inveon-dedicated PET scanner. The average delay between injection and starting of PET scanning was 3.5 min. Rice were maintained stable under 4% isoflurane anesthesia throughout scanning. The PET list-mode data were dynamically classified into 23 3D sinograms of span and three ring difference. After Fourier recombination, the data were reconstructed using a 2D ordered-subset expectation maximization algorithm. Random events were excluded before reconstruction. The response of detector is normalized using a component-based approach. All dynamic images were corrected for radioactive decay automatically. The PET images were reconstructed by a cone beam algorithm into 480 × 480 × 632 image arrays. After the reconstruction, images were spatially transformed to match the PET images ([Constantinescu et al., 2013a],[b]).
The reconstruction of the image was performed using the PMOD software (PMOD Technologies). The 3D volumes of interest (VOIs) were drawn manually of the following organs: brain, heart, liver, lungs, kidneys, cortical bone, and gallbladder. The organs were carefully identified and VOIs were drawn as irregular contours on high-resolution PET images obtained from each mouse ([Constantinescu et al., 2013b]; [Garg et al., 2017]). The size of each VOI was less than the actual size of each organ to minimize the effects of PET on adjacent organ spills. The VOIs drawing was verified by a second operator. The VOIs of cortical bone were generated by first using PET image to depict the entire femur bone ([Constantinescu et al., 2013b]). The VOI was transferred to a dynamic PET image and the mean time-activity curve (TAC) of the decay correction was extracted for each target organ ([Constantinescu et al., 2013b]).

CC1(C)[C@@H](O)CC[C@]2(C)[C@H]3C(=O)C=C4[C@@H]5C[C@@](C)(C(=O)NCCCC[18F])CC[C@]5(C)CC[C@@]4(C)[C@]3(C)CC[C@@H]12 [[^18F]-GA, [^18F]-Glycyrrhetinic acid]
change in vital signs or electrocardiograms [1]: no change in vital signs or electrocardiograms significantly | time from which lung %ID/g of OA group differs significantly ([2]; OA vs. Con, Table 2): 7 min | [^18F]-GA concentration of lung, OA group relative to LA group ([2]; area under the curve, OA: PG polysaccharides 1 h before, LA: for 7 days): 2 times | [^18F]-GA concentration of lung, OA group relative to control mice ([2]; area under the curve, PG polysaccharides orally 1 h before [^18F]-GA): 2.7 times | ranking of organ concentration (area under the curve) ([2]; control group, mice): concentration of liver was highest, and the lung was lowest | tissue uptake at 60 s ([2]; male, Kunming, mouse, lungs, intravenous, mice, control group, Time(s) 60, read-out: %ID/g of [^18F]-GA in the lungs, Con): 8.86 %ID/g | tissue uptake at 180 s ([2]; male, Kunming, mouse, lungs, intravenous, mice, control group, Time(s) 180, read-out: %ID/g of [^18F]-GA in the lungs, Con): 4.36 %ID/g | tissue uptake at 300 s ([2]; male, Kunming, mouse, lungs, intravenous, mice, control group, Time(s) 300, read-out: %ID/g of [^18F]-GA in the lungs, Con): 3.29 %ID/g | tissue uptake at 420 s ([2]; male, Kunming, mouse, lungs, intravenous, mice, control group, Time(s) 420, read-out: %ID/g of [^18F]-GA in the lungs, Con): 2.78 %ID/g | tissue uptake at 540 s ([2]; male, Kunming, mouse, lungs, intravenous, mice, control group, Time(s) 540, read-out: %ID/g of [^18F]-GA in the lungs, Con): 2.42 %ID/g | tissue uptake at 780 s ([2]; male, Kunming, mouse, lungs, intravenous, mice, control group, Time(s) 780, read-out: %ID/g of [^18F]-GA in the lungs, Con): 2.1 %ID/g | tissue uptake at 900 s ([2]; male, Kunming, mouse, lungs, intravenous, mice, control group, Time(s) 900, read-out: %ID/g of [^18F]-GA in the lungs, Con): 2.15 %ID/g | tissue uptake at 1020 s ([2]; male, Kunming, mouse, lungs, intravenous, mice, control group, Time(s) 1020, read-out: %ID/g of [^18F]-GA in the lungs, Con): 2.09 %ID/g | tissue uptake at 1140 s ([2]; male, Kunming, mouse, lungs, intravenous, mice, control group, Time(s) 1140, read-out: %ID/g of [^18F]-GA in the lungs, Con): 1.9 %ID/g | tissue uptake at 1350 s ([2]; male, Kunming, mouse, lungs, intravenous, mice, control group, Time(s) 1350, read-out: %ID/g of [^18F]-GA in the lungs, Con): 1.75 %ID/g | tissue uptake at 1650 s ([2]; male, Kunming, mouse, lungs, intravenous, mice, control group, Time(s) 1650, read-out: %ID/g of [^18F]-GA in the lungs, Con): 1.66 %ID/g | tissue uptake at 1950 s ([2]; male, Kunming, mouse, lungs, intravenous, mice, control group, Time(s) 1950, read-out: %ID/g of [^18F]-GA in the lungs, Con): 1.55 %ID/g | tissue uptake at 2250 s ([2]; male, Kunming, mouse, lungs, intravenous, mice, control group, Time(s) 2250, read-out: %ID/g of [^18F]-GA in the lungs, Con): 1.51 %ID/g | tissue uptake at 2700 s ([2]; male, Kunming, mouse, lungs, intravenous, mice, control group, Time(s) 2700, read-out: %ID/g of [^18F]-GA in the lungs, Con): 1.34 %ID/g | tissue uptake at 3300 s ([2]; male, Kunming, mouse, lungs, intravenous, mice, control group, Time(s) 3300, read-out: %ID/g of [^18F]-GA in the lungs, Con): 1.26 %ID/g | tissue uptake at 3900 s ([2]; male, Kunming, mouse, lungs, intravenous, mice, control group, Time(s) 3900, read-out: %ID/g of [^18F]-GA in the lungs, Con): 1.23 %ID/g | tissue uptake at 4500 s ([2]; male, Kunming, mouse, lungs, intravenous, mice, control group, Time(s) 4500, read-out: %ID/g of [^18F]-GA in the lungs, Con): 1.05 %ID/g | tissue uptake at 5100 s ([2]; male, Kunming, mouse, lungs, intravenous, mice, control group, Time(s) 5100, read-out: %ID/g of [^18F]-GA in the lungs, Con): 1.04 %ID/g | tissue uptake at 5700 s ([2]; male, Kunming, mouse, lungs, intravenous, mice, control group, Time(s) 5700, read-out: %ID/g of [^18F]-GA in the lungs, Con): 1.02 %ID/g | tissue uptake at 6300 s ([2]; male, Kunming, mouse, lungs, intravenous, mice, control group, Time(s) 6300, read-out: %ID/g of [^18F]-GA in the lungs, Con): 0.97 %ID/g | tissue uptake at 6900 s ([2]; male, Kunming, mouse, lungs, intravenous, mice, control group, Time(s) 6900, read-out: %ID/g of [^18F]-GA in the lungs, Con): 0.94 %ID/g | tissue uptake at 1 h ([2]; male, Kunming, mouse, lungs, mice, PG polysaccharides orally 1 h before [^18F]-GA, Time(s) 60): 8.21 %ID/g | tissue uptake at 1 h ([2]; male, Kunming, mouse, lungs, mice, PG polysaccharides orally 1 h before [^18F]-GA, Time(s) 180): 5.95 %ID/g | tissue uptake at 1 h ([2]; male, Kunming, mouse, lungs, mice, PG polysaccharides orally 1 h before [^18F]-GA, Time(s) 300): 5.53 %ID/g | tissue uptake at 1 h ([2]; male, Kunming, mouse, lungs, mice, PG polysaccharides orally 1 h before [^18F]-GA, Time(s) 420): 5.2 %ID/g | tissue uptake at 1 h ([2]; male, Kunming, mouse, lungs, mice, PG polysaccharides orally 1 h before [^18F]-GA, Time(s) 540): 4.85 %ID/g | tissue uptake at 1 h ([2]; male, Kunming, mouse, lungs, mice, PG polysaccharides orally 1 h before [^18F]-GA, Time(s) 660): 4.63 %ID/g | tissue uptake at 1 h ([2]; male, Kunming, mouse, lungs, mice, PG polysaccharides orally 1 h before [^18F]-GA, Time(s) 780): 4.54 %ID/g | tissue uptake at 1 h ([2]; male, Kunming, mouse, lungs, mice, PG polysaccharides orally 1 h before [^18F]-GA, Time(s) 900): 4.53 %ID/g | tissue uptake at 1 h ([2]; male, Kunming, mouse, lungs, mice, PG polysaccharides orally 1 h before [^18F]-GA, Time(s) 1020): 4.35 %ID/g | tissue uptake at 1 h ([2]; male, Kunming, mouse, lungs, mice, PG polysaccharides orally 1 h before [^18F]-GA, Time(s) 1140): 4.25 %ID/g | tissue uptake at 1 h ([2]; male, Kunming, mouse, lungs, mice, PG polysaccharides orally 1 h before [^18F]-GA, Time(s) 1350): 4.17 %ID/g
